Laboratory results taken from PubChem BioAssay (NCI).
“And” between values parts separate entries of the source, which are not always exact repeats. Identical values can stand only once.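 Exposure lasted 48 hours, with cells grown in 96-well plates and compounds tested at five concentrations. Abbreviation: GI50, concentration required for 50% inhibition of growth. TGI: concentration producing complete growth inhibition.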

Tests used:
Assay in all cases: inhibition of tumour cell growth, NCI panel, 48 h; in the data active = GI50 below about 0.43 µM; inactive = the rest
[1] = test system: COLO 205 colon
[2] = test system: M19-MEL melanoma
[3] = test system: SNB-78 CNS
[4] = test system: LXFL 529 NSCLC
[5] = test system: KM12 colon
[6] = test system: RXF-631 renal
[7] = test system: M14 melanoma
[8] = test system: SF-295 CNS
[9] = test system: XF 498 CNS
[10] = test system: SNB-75 CNS
[11] = test system: SK-OV-3 ovarian
[12] = test system: KM20L2 colon
[13] = test system: SNB-19 CNS
[14] = test system: SW-620 colon
[15] = test system: LOX IMVI melanoma
[16] = test system: K-562 leukemia
[17] = test system: RPMI-8226 leukemia
[18] = test system: RXF 393 renal
[19] = test system: NCI-H23 lung
[20] = test system: 786-0 renal
[21] = test system: NCI-H226 lung
[22] = test system: ACHN renal
[23] = test system: DLD-1 colon
[24] = test system: HL-60(TB) leukemia
[25] = test system: CAKI-1 renal
[26] = test system: DMS 114 small cell lung
[27] = test system: HCT-116 colon
[28] = test system: A498 renal
[29] = test system: HCC-2998 colon
[30] = test system: UO-31 renal
[31] = test system: SN12C renal
[32] = test system: OVCAR-3 ovarian
[33] = test system: CCRF-CEM leukemia
[34] = test system: HT29 colon
[35] = test system: U251 CNS
[36] = test system: OVCAR-4 ovarian
[37] = test system: OVCAR-8 ovarian
[38] = test system: SF-539 CNS
[39] = test system: EKVX NSCLC
[40] = test system: MOLT-4 leukemia
[41] = test system: SK-MEL-2 melanoma
[42] = test system: SK-MEL-5 melanoma
[43] = test system: HOP-18 NSCLC
[44] = test system: HCT-15 colon
[45] = test system: HOP-62 NSCLC
[46] = test system: UACC-257 melanoma
[47] = test system: IGROV1 ovarian
[48] = test system: MALME-3M melanoma
[49] = test system: A549 NSCLC
[50] = test system: NCI-H460 lung
[51] = test system: HOP-92 NSCLC
[52] = test system: TK-10 renal
[53] = test system: OVCAR-5 ovarian
[54] = test system: UACC-62 melanoma
[55] = test system: NCI-H522 lung
[56] = test system: SF-268 CNS
[57] = test system: SK-MEL-28 melanoma
[58] = test system: SR leukemia

CSc1nc(NC2OCC(OC(C)=O)C(OC(C)=O)C2OC(C)=O)c2c(OC(C)=O)c(C)c(=O)oc2n1 (stereo unspecified)
> 100 µM: TGI [1] | TGI [2] | TGI [3] | TGI [4] | TGI [5] | TGI [6] | TGI [7] | TGI [8] | TGI [9] | TGI [10] | TGI [11] | TGI [12] | TGI [13] | TGI [14] | TGI [15] | TGI [16] | TGI [17] | TGI [18] | TGI [19] | TGI [20] | TGI [21] | TGI [22] | TGI [23] | TGI [24] | TGI [25] | TGI [26] | TGI [27] | TGI [28] | TGI [29] | TGI [30] | TGI [31] | TGI [32] | TGI [33] | TGI [34] | TGI [35] | TGI [36] | TGI [37] | TGI [38] | TGI [39] | TGI [40] | TGI [41] | TGI [42] | TGI [43] | TGI [44] | TGI [45] | TGI [46] | TGI [47] | TGI [48] | TGI [49] | TGI [50] | TGI [51] | TGI [52] | TGI [53] | TGI [54]

CC1OC(n2ncc(=O)[nH]c2=O)C=CC1=O (stereo unspecified)
> 100 µM and 71.9 µM: TGI [51]
86.8 µM and > 100 µM: TGI [3]
> 100 µM and 92.9 µM: TGI [58]
57.5 µM and 52.7 µM: TGI [24]
inactive: GI50 [1] > 100 µM and 36.9 µM | GI50 [7] 89.4 µM and 20.5 µM | GI50 [9] 54.8 µM and 22.9 µM | GI50 [11] > 100 µM and 29.3 µM | GI50 [12] > 100 µM and 40.7 µM | GI50 [13] > 100 µM and 35.1 µM | GI50 [14] > 100 µM and 44.1 µM | GI50 [19] 34.7 µM and 16.5 µM | GI50 [23] 77.2 µM and 31.2 µM | GI50 [56] > 100 µM and 36.6 µM | GI50 [40] 81.1 µM and 30.2 µM | GI50 [41] > 100 µM and 49.2 µM | GI50 [44] 90.5 µM and 34.6 µM | GI50 [45] > 100 µM and 42.1 µM | GI50 [46] 37 µM | GI50 [51] 71.1 µM and 32.8 µM
32.5 µM and 43.5 µM: TGI [6]
> 100 µM and 47.9 µM: TGI [38]
> 100 µM and 60.5 µM: TGI [7]
> 100 µM: TGI [1] | TGI [2] | TGI [4] | TGI [5] | TGI [8] | TGI [9] | TGI [10] | TGI [11] | TGI [12] | TGI [13] | TGI [14] | TGI [15] | TGI [16] | TGI [20] | TGI [21] | TGI [22] | TGI [23] | TGI [25] | TGI [27] | TGI [29] | TGI [30] | TGI [56] | TGI [31] | TGI [32] | TGI [34] | TGI [35] | TGI [36] | TGI [37] | TGI [40] | TGI [41] | TGI [44] | TGI [45] | TGI [46] | TGI [47] | TGI [49] | TGI [50] | TGI [52] | TGI [53] | TGI [54]
40.2 µM and 48.3 µM: TGI [48]
37.6 µM and 36.2 µM: TGI [55]
99.3 µM and 62 µM: TGI [17]
93.8 µM and 46 µM: TGI [57]
> 100 µM and 37.3 µM: TGI [19]
